{"source": "patent US20230023009A1", "about": "“HETEROCYCLIC COMPOUNDS AND METHODS OF USE THEREOF” (SPARCBIO LLC, priority 2020, published 2023)", "key": {"[1]": {"system": "A549", "test": "Cell proliferation assay panel (Cell Titer-Glo, 72 hr)", "assay_type": "cell-based", "settings": "Homo sapiens", "experimental": "(§1) Potency of compounds was determined in cell proliferation assays in a panel of cancer cell lines. Cells were seeded in 384-well plates (Corning, Cat. #3765) at specified densities in 40 μL of culture medium and incubated overnight at 37° C. in a 5% CO2 incubator (culture conditions). With a robotic dispenser, serially diluted test compounds were added in a volume of 20 nL DMSO to wells in the culture plate to achieve the final desired concentrations of test compounds, and the cells were further incubated in culture conditions for 72 hr. The assay was terminated by addition of 25 μL of Cell Titer-Glo reagent (Promega, Madison, Wis.) to each well. Contents were mixed, the plate was incubated for 10 min at room temperature and luminescence was measured. The IC50 value of each test compound was calculated with XLFit curve fitting software. Results are shown in Table 4. ‘+++’ indicates IC50 values≤300 nM, ‘++’ indicates IC50 values between 300 nM-3 μM, and ‘+’ indicates IC50 values≥3 μM."}, "[2]": {"system": "KYSE-410", "test": "Cell proliferation assay panel (Cell Titer-Glo, 72 hr)", "assay_type": "cell-based", "settings": "Homo sapiens", "experimental": "as §1"}, "[3]": {"system": "MIA PaCa-2", "test": "Cell proliferation assay panel (Cell Titer-Glo, 72 hr)", "assay_type": "cell-based", "settings": "Homo sapiens, MIA PaCa-2, 72 h", "experimental": "as §1"}, "[4]": {"system": "NCI-H1373", "test": "Cell proliferation assay panel (Cell Titer-Glo, 72 hr)", "assay_type": "cell-based", "settings": "Homo sapiens", "experimental": "as §1"}, "[5]": {"system": "NCI-H2030", "test": "Cell proliferation assay panel (Cell Titer-Glo, 72 hr)", "assay_type": "cell-based", "settings": "Homo sapiens", "experimental": "as §1"}, "[6]": {"system": "NCI-H2122", "test": "Cell proliferation assay panel (Cell Titer-Glo, 72 hr)", "assay_type": "cell-based", "settings": "Homo sapiens", "experimental": "as §1"}, "[7]": {"system": "NCI-H358", "test": "Cell proliferation assay panel (Cell Titer-Glo, 72 hr)", "assay_type": "cell-based", "settings": "Homo sapiens", "experimental": "as §1"}, "[8]": {"system": "SW1573", "test": "Cell proliferation assay panel (Cell Titer-Glo, 72 hr)", "assay_type": "cell-based", "settings": "Homo sapiens", "experimental": "as §1"}, "[9]": {"system": "NCI-H358 cells", "test": "3D cell proliferation assay (Cell Titer-Glo 3D, 7 days)", "assay_type": "cell-based", "settings": "Homo sapiens, NCI-H358, 168 h, NCI-H358 3D, ultra-low attachment plate", "experimental": "NCI-H358 cells (ATCC® CRL-5807™) were plated in a 384-well Black/Clear Round Bottom Ultra-Low Attachment Microplate (Corning) in medium (RPMI-1640+10% FBS) at a density of 1000 cells in 50 μL per well, then incubated overnight at 37° C. and 5% CO2. Cells were treated with test compounds at 9 concentrations within a specified concentration range (e.g., 0.5 nM-10 μM) for generation of dose response curves. Test compounds were prepared by 1:3 serial dilution in DMSO from a specified starting concentration (e.g., 20 μM, 2 μM or 0.2 μM) and then added to wells of the assay plate in a total volume of 150 nL DMSO. The cells were further incubated at 37° C. and 5% CO2 for 7 days. Cell viability was assessed by adding 40 μL of Cell Titer-Glo® 3D reagent (Cat. No.: G9683, Promega) to each well and reading luminescence after mixing and incubation of the samples. The IC50 value of each test compound was calculated with XLFit curve fitting software."}, "[10]": {"system": "Phosphorylation of ERK in NCI-H358 cells", "test": "pERK assay (Method II, homogeneous TR-FRET)", "assay_type": "cell-based", "settings": "Homo sapiens, 4 hrs compound treatment", "experimental": "Method II. Phosphorylation of ERK was assessed by a homogeneous TR-FRET assay (Advanced phospho-ERK (Thr202/Tyr204) cellular kit; Cat. #64AERPEH, Cisbio). In brief, NCI-H358 cells were seeded in a 384-well culture plate at a density of 6000 cells in 40 μL medium/well and grown overnight at 37° C. and 5% CO2. Each test compound was dosed in duplicate in a 10-dose 3-fold titration starting at 10 μM or 2 μM. The culture plate was then incubated for 4 hrs in the incubator. At the end of the compound treatment, the medium was removed, 35 μL of lysis buffer was added to each well, and the plate was agitated on a plate shaker for 40 mins at 4° C. An antibody cocktail of phospho-ERK1/2 Eu Cryptate antibody and Phospho-ERK1/2 d2 antibody was prepared by separately diluting the antibodies 20-fold with detection buffer and then mixing them together. 3.4 μL of antibody cocktail was dispensed to each well of an empty 384-well white ProxiPlus assay plate (Perkin Elmer), and the plate briefly centrifuged. 13.6 μL of cell lysate was then added to the antibody-containing wells, and the plate was briefly centrifuged and then incubated 2 hrs at room temperature. The plate was read on a fluorescence plate reader (Envision2104, Perkin Elmer), with an excitation wavelength of 337 nm and emission wavelengths of 615 nm and 665 nm. The IC50 value of each test compound was calculated with XLFit curve fitting software. Results are shown in Table 6. ‘+++’ indicates IC50 values≤300 nM, ‘++’ indicates IC50 values between 300 nM-3 μM, and ‘+’ indicates IC50 values≥3 μM."}, "[11]": {"system": "NCI-H358 subcutaneous xenograft tumors", "test": "NCI-H358 mouse xenograft model", "quoted_text": "NCI-H358 cells were injected subcutaneously (5×10^6 cells in 0.1 mL of PBS) into the right flanks of 6-8-week-old female BALB/c nude mice and allowed to grow until the average tumor size reached 150-200 mm^3. The mice were then stratified into treatment groups of 4-8 animals and treatment initiated on Day 0. Test compound or vehicle (1% Tween 80, 2% HPMC, and 97% water) was administered orally, once daily, for 21 days. Tumor size was measured twice weekly in two dimensions using a caliper, and the volume was expressed in mm^3 using the formula: V=(a×b^2/2) where a and b are the long and short diameters of the tumor, respectively. Tumor Growth Inhibition (TGI) was calculated for each group using the formula: TGI %=(1−Ti/Vi)×100, where Ti is the mean tumor volume of the treatment group on the measurement day, and Vi is the mean tumor volume of the control group on the measurement day. Animal body weight was monitored regularly as an indicator of toxicity. […] Data points represent the group mean, and error bars represent the standard error of the mean (SEM)."}}, "data": [{"smiles": "C=C(F)C(=O)N1CCN(c2nc(OC[C@@H]3CCCN3C)nc3c2CO[C@@H](c2cccc4cccc(Cl)c24)C3)C[C@@H]1CC#N", "note": "(single isomer, unassigned) [43 (Isomer B)]", "values": [{"measurement": "IC50", "setting": "[1]", "result": "≥ 3000", "unit": "nM"}, {"measurement": "IC50", "setting": "[2]", "result": "≥ 3000", "unit": "nM"}, {"measurement": "IC50", "setting": "[3]", "result": "≤ 300", "unit": "nM"}, {"measurement": "IC50", "setting": "[4]", "result": "300 to 3000", "unit": "nM"}, {"measurement": "IC50", "setting": "[5]", "result": "300 to 3000", "unit": "nM"}, {"measurement": "IC50", "setting": "[6]", "result": "300 to 3000", "unit": "nM"}, {"measurement": "IC50", "setting": "[7]", "result": "≤ 300", "unit": "nM"}, {"measurement": "IC50", "setting": "[8]", "result": "≥ 3000", "unit": "nM"}, {"measurement": "IC50", "setting": "[9]", "result": "≤ 100", "unit": "nM"}, {"measurement": "IC50", "setting": "[10]", "result": "≤ 300", "unit": "nM"}, {"measurement": "TGI", "setting": "[11]; 10 mg/kg orally once daily, Day 20 after treatment start", "result": 15.1, "unit": "%"}, {"measurement": "TGI", "setting": "[11]; 30 mg/kg orally once daily, Day 20 after treatment start (day not restated for comparators)", "result": 43.6, "unit": "%"}, {"measurement": "TGI", "setting": "[11]; 100 mg/kg orally once daily, Day 20 after treatment start", "result": 94.6, "unit": "%"}, {"measurement": "tolerability (from body weight)", "setting": "[11]; 10, 30 and 100 mg/kg orally once daily for 21 days", "result": "well-tolerated"}, {"measurement": "weight loss", "setting": "[11]; none of the mice greater than this, 10, 30 and 100 mg/kg once daily", "result": "≤ 10", "unit": "%"}]}]}
